Test [1] deals with IL-17A(FLAG-Tagged): IL-17RA(His-Tagged) (Homo sapiens, UniProt Q16552, K93Q). The test can be described thus: IL-17A(FLAG-Tagged): IL-17RA(His-Tagged) Binding Disruption Eu-HTRF Assay, Protocol 1. Conditions: Protocol 1, FLAG tagged IL-17A 2.5 nM; simple average if tested more than once. The source says: An antibody directed against the FLAG tag of IL-17A (SEQ ID NO: 1) is labeled with the HTRF donor chromophore (Europium-cryptate). IL-17A is present as a dimer that is “locked into” this quaternary structure due to the formation of loop-spanning […] disulfide bridges. The construct of IL-17RA used in the assay excludes the […] portion of the receptor and is fused to a C-terminal 10×His tag (SEQ ID NO:2). An antibody directed against the His tag of the IL-17RA chimera is labeled with the HTRF acceptor chromophore (“D2”). The fluorescence-resonance energy transfer (FRET) depends on the vicinity of the donor chromophore to the acceptor, and interruption of the binding between the IL-17A and IL-17RA causes the reduction/loss of FRET. Therefore, this assay allows to evaluate the compound effect on the binding IL-17A and IL-17RA by monitoring the fluorescence intensity of donor vs acceptor. The assay was run using either Protocol 1 or Protocol 2 as described below.
Protocol 1. 40 nl of 2-fold serial diluted compound solution for total 22 dilution points is added into each well of a 1536-well, white, low-volume, non-binding plate (Greiner #782904), then 2 μl of FLAG tagged IL-17A at 2× final concentration (2.5 nM) in solution of PBS+0.01% Triton-X100 is added to each well. The assay plate is briefly centrifuged then incubated for 1 h at rt. A mixed solution is prepared containing 2×5 nM 10HIS×IL-17RA, 2×2.5 nM Eu-anti-FLAG (CISBIO), 2×5 nM D2-anti-HIS (CISBIO) in PBS+0.01% Triton-X100+200 mM Potassium Fluoride (Sigma 60238) and 2 μl of mix is added to each well of the assay plate. The plate is briefly centrifuged then incubated for 2 h at rt. The HTRF intensities at the wavelength of donor (620 nm) and acceptor (665 nm) are measured using BMG Pherastar. The ratio between intensities at two wavelengths is calculated and plotted against the compound concentration and the data is fitted to a one-site competition model to yield IC50 of the compound.
(In general: Time-resolved FRET reads energy transfer from a long-lived donor to a nearby acceptor.)

The test system of test [2] is IL-17A-induced G-CSF production in human normal keratinocyte (NHK). As to the kind of experiment: NHK Assay: IL-17A-induced G-CSF production in human normal keratinocyte. Conditions: 24 h, IL-17A 5 ng/mL, simple average if tested more than once. The test is classed as cell-based. As to the method: IL-17A acts directly on keratinocytes through binding to dimeric receptor IL-17RA/RC and drives the production of a number of inflammatory mediators known to be elevated in psoriasis lesional tissue. IL-17A small molecule inhibitors that block the IL-17A to interact with IL-17R would inhibit the IL-17A signaling in its targeted cells such as keratinocytes. The compound functional activity is evaluated for its impact on IL-17A-induced G-CSF production in human normal keratinocyte (NHK).
Adult normal human keratinocytes are cultured in keratinocyte growth medium (Lonza) in a flask till reaching ˜90% confluence, then cells are transferred to a 384-well plate at density of 3000-4000 cell/well. Recombinant human IL-17A (Gibco PHC9174) is pre-incubated with titrated compound or DMSO for 1 h at rt then added to the cell culture plate. The final concentration of IL-17A is 5 ng/mL and DMSO is 0.2%, in the culture containing 5% FBS. Cells are cultured/treated for 24 h at 37° C. Supernatants are collected and G-CSF production is measured through HTRF technology using Human G-CSF Kit (CisBio). G-CSF concentration was extrapolated from the standard curve and IC50 is determined using GraphPad Prism. Cell viability is also evaluated using CellTiter-Glo kit (Promega) and effect of compound on cell viability is compared to DMSO control.

SMILES strings stand for the structures.

One may read the IC50 as the midpoint of a concentration-inhibition curve. A high value points to lower potency.

UniProt Q16552, sequence (Q16552 with tags, fused parts or gaps K93Q): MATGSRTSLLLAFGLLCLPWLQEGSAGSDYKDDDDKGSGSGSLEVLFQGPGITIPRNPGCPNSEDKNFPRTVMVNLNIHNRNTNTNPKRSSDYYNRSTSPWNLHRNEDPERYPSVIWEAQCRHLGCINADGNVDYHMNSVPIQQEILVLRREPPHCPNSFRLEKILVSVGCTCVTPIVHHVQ

With `[2H]C1([2H])[C@@H](C(F)(F)F)NC(=O)N1[C@H](COC)c1ccc2[nH]c([C@H](COC(C)(C)C(F)(F)F)NC(=O)c3nonc3C)nc2c1` (relative stereo) [Example 55, N—((R*)-1-(5-((S)-2-methoxy-1-((S*)-2-oxo-4-(trifluoromethyl)imidazolidin-1-yl-5,5-d2)ethyl)-1H-benzo[d]imidazol-2-yl)-2-((1,1,1-trifluoro-2-methylpropan-2-yl)oxy)ethyl)-4-methyl-1,2,5-oxadiazole-3-carboxamide], the IC50 is below 0.05 µM in test [1] and below 0.05 µM in test [2] (Homo sapiens, Keratinocyte).
Take `Cc1nonc1C(=O)NC(COC(C)(C)C(F)(F)F)c1nc2cc([C@@H](COC3CC3)N3CC(F)(F)CNC3=O)ccc2[nH]1` (single isomer, unassigned) [Example 56, N—((R*)-1-(5-((S)-2-Cyclopropoxy-1-(5,5-difluoro-2-oxotetrahydropyrimidin-1(2H)-yl)ethyl)-1H-benzo[d]imidazol-2-yl)-2-((1,1,1-trifluoro-2-methylpropan-2-yl)oxy)ethyl)-4-methyl-1,2,5-oxadiazole-3-carboxamide]: the half-maximal inhibitory concentration (IC50) was below 0.05 µM in test [1] and below 0.05 µM in test [2] (Homo sapiens, Keratinocyte).
For the molecule `CC(C)(OC[C@H](NC(=O)c1nonc1C1CC1)c1nc2nc(CN3C[C@H](C(F)(F)F)NC3=O)ccc2[nH]1)C(F)(F)F` (relative stereo) [Example 38, 4-Cyclopropyl-N—((R*)-1-(5-(((R*)-2-oxo-4-(trifluoromethyl)imidazolidin-1-yl)methyl)-1H-imidazo[4,5-b]pyridin-2-yl)-2-((1,1,1-trifluoro-2-methylpropan-2-yl)oxy)ethyl)-1,2,5-oxadiazole-3-carboxamide], the IC50 in test [1] was below 0.05 µM; in test [2] (Homo sapiens, Keratinocyte), below 0.05 µM.
On to `C[C@@H](O[C@H](C)C(F)(F)F)C(NC(=O)c1nonc1C1CC1)c1nc2nc([C@@H](C3CC3)N3CC(F)(F)CNC3=O)ccc2[nH]1` (single isomer, unassigned) [Example 20, 4-Cyclopropyl-N-((1R*,2R)-1-(5-((R)-cyclopropyl(5,5-difluoro-2-oxotetrahydropyrimidin-1(2H)-yl)methyl)-1H-imidazo[4,5-b]pyridin-2-yl)-2-(((R)-1,1,1-trifluoropropan-2-yl)oxy)propyl)-1,2,5-oxadiazole-3-carboxamide], for which the IC50 is below 0.05 µM in test [1] and below 0.05 µM in test [2] (Homo sapiens, Keratinocyte).
As for `CO[C@@H](CC(F)(F)F)[C@H](NC(=O)c1nonc1C1CC1)c1nc2cc(CN3C[C@@H](C(F)(F)F)NC3=O)ccc2[nH]1` (relative stereo) [Example 46, 4-Cyclopropyl-N-((1R*,2S*)-4,4,4-trifluoro-2-methoxy-1-(5-(((S)-2-oxo-4-(trifluoromethyl)imidazolidin-1-yl)methyl)-1H-benzo[d]imidazol-2-yl)butyl)-1,2,5-oxadiazole-3-carboxamide], the 50% inhibitory concentration (IC50) in test [2] (Homo sapiens, Keratinocyte) was below 0.05 µM.
`CO[C@H](CC(F)(F)F)[C@H](NC(=O)c1nonc1C)c1nc2cc(CN3C[C@@H](C(F)(F)F)NC3=O)ccc2[nH]1` (relative stereo) [Example 90, 4-Methyl-N-((1R*,2R*)-4,4,4-trifluoro-2-methoxy-1-(5-(((S)-2-oxo-4-(trifluoromethyl)imidazolidin-1-yl)methyl)-1H-benzo[d]imidazol-2-yl)butyl)-1,2,5-oxadiazole-3-carboxamide] registered an IC50 in test [2] (Homo sapiens, Keratinocyte) above 0.1 µM.
In test [2] (Homo sapiens, Keratinocyte), `Cc1nonc1C(=O)N[C@H](c1nc2cc([C@@H](COC3CC3)N3CC(F)(F)CNC3=O)ccc2[nH]1)[C@@H](C)O[C@@H](C)C(F)(F)F` [Example 66, N-((1R,2R)-1-(5-((S)-2-Cyclopropoxy-1-(5,5-difluoro-2-oxotetrahydropyrimidin-1(2H)-yl)ethyl)-1H-benzo[d]imidazol-2-yl)-2-(((S)-1,1,1-trifluoropropan-2-yl)oxy)propyl)-4-methyl-1,2,5-oxadiazole-3-carboxamide] gave an IC50 below 0.05 µM.
Take `C[C@H](O[C@H](C)[C@H](NC(=O)c1nonc1C1CC1)c1nc2cc([C@@H](COC3CC3)N3CC(F)(F)CNC3=O)ccc2[nH]1)C(F)(F)F` [Example 67, N-((1R,2R)-1-(5-((S)-2-Cyclopropoxy-1-(5,5-difluoro-2-oxotetrahydropyrimidin-1(2H)-yl)ethyl)-1H-benzo[d]imidazol-2-yl)-2-(((S)-1,1,1-trifluoropropan-2-yl)oxy)propyl)-4-cyclopropyl-1,2,5-oxadiazole-3-carboxamide]: the half-maximal inhibitory concentration (IC50) in test [2] (Homo sapiens, Keratinocyte) was below 0.05 µM.
In turn, `CO[C@@H](CC(F)(F)F)[C@H](NC(=O)c1nonc1C)c1nc2cc(CN3C[C@@H](C(F)(F)F)NC3=O)ccc2[nH]1` (relative stereo) [Example 91, 4-Methyl-N-((1R*,2S*)-4,4,4-trifluoro-2-methoxy-1-(5-(((S)-2-oxo-4-(trifluoromethyl)imidazolidin-1-yl)methyl)-1H-benzo[d]imidazol-2-yl)butyl)-1,2,5-oxadiazole-3-carboxamide] displayed a half-inhibitory concentration (IC50) in test [2] (Homo sapiens, Keratinocyte) below 0.05 µM.
On the same count and under the same terms, to `CO[C@H](CC(F)(F)F)[C@@H](NC(=O)c1nonc1C1CC1)c1nc2cc(CN3C[C@@H](C(F)(F)F)NC3=O)ccc2[nH]1` (single isomer, unassigned) [Example 45, 4-Cyclopropyl-N-((1S*,2R*)-4,4,4-trifluoro-2-methoxy--(5-(((S)-2-oxo-4-(trifluoromethyl)imidazolidin-1-yl)methyl)-1H-benzo[d]imidazol-2-yl)butyl)-1,2,5-oxadiazole-3-carboxamide] belongs 0.05 to 0.1 µM.
In test [2], `Cc1nonc1C(=O)N[C@@H](COC(C)(C)C(F)(F)F)c1nc2cc([C@@H](C3CC3)N3CC(CC(F)(F)F)NC3=O)ccc2[nH]1` (single isomer, unassigned) [Example 89, N—((R)-1-(5-((R)-Cyclopropyl((S*)-2-oxo-4-(2,2,2-trifluoroethyl)imidazolidin-1-yl)methyl)-1H-benzo[d]imidazol-2-yl)-2-((1,1,1-trifluoro-2-methylpropan-2-yl)oxy)ethyl)-4-methyl-1,2,5-oxadiazole-3-carboxamide] returned an IC50 above 0.1 µM.
Regarding `COC[C@H](c1ccc2[nH]c([C@@H](NC(=O)c3nonc3C3CC3)[C@@H](C)OC3CC3)nc2c1)N1CC(F)(F)CNC1=O` [Example 43, N-((1R,2R)-2-Cyclopropoxy-1-(5-((S)-1-(5,5-difluoro-2-oxotetrahydropyrimidin-1(2H)-yl)-2-methoxyethyl)-1H-benzo[d]imidazol-2-yl)propyl)-4-cyclopropyl-1,2,5-oxadiazole-3-carboxamide], the half-maximal inhibitory concentration (IC50) in test [2] (Homo sapiens, Keratinocyte) is below 0.05 µM.
With `[2H]C1([2H])NC(=O)N([C@@H](c2ccc3[nH]c([C@H](COC(C)(C)C(F)(F)F)NC(=O)c4nonc4C)nc3c2)C2CC2)CC1(F)F` [Example 81, N-[(1R)-1-[5-[(R)-Cyclopropyl-(4,4-dideuterio-5,5-difluoro-2-oxo-hexahydropyrimidin-1-yl)methyl]-1H-benzimidazol-2-yl]-2-(2,2,2-trifluoro-1,1-dimethyl-ethoxy)ethyl]-4-methyl-1,2,5-oxadiazole-3-carboxamide], the 50% inhibitory concentration (IC50) in test [2] (Homo sapiens, Keratinocyte) was below 0.05 µM.
On the same count and under the same terms, to `COCC(c1ccc2[nH]c([C@H](COC(C)(C)C(F)(F)F)NC(=O)c3nonc3C)nc2c1)N1C[C@@](C)(C(F)(F)F)NC1=O` (single isomer, unassigned) [Example 63, N—((R)-1-(5-((R*)-2-Methoxy-1-((S)-4-methyl-2-oxo-4-(trifluoromethyl)imidazolidin-1-yl)ethyl)-1H-benzo[d]imidazol-2-yl)-2-((1,1,1-trifluoro-2-methylpropan-2-yl)oxy)ethyl)-4-methyl-1,2,5-oxadiazole-3-carboxamide] belongs below 0.05 µM.

Values taken from patent US20250122181A1, “BENZIMIDAZOLES AS MODULATORS OF IL-17” (Janssen Pharmaceutica NV, priority 2021, published 2025).
